{
  "source": "patent US9210928B2",
  "about": "“Plant development control composition” (Syngenta Crop Protection, LLC, priority 2008, dated 2015)",
  "key": {"LeNCED1": {"molecular_target": "T1, LeNCED1 (Solanum lycopersicum, UniProt O24023)", "T1 construct": "made in house; host or cells: E. coli Rosetta (DE3); crude cell-free extract", "T1 sequence (O24023 17-605)": "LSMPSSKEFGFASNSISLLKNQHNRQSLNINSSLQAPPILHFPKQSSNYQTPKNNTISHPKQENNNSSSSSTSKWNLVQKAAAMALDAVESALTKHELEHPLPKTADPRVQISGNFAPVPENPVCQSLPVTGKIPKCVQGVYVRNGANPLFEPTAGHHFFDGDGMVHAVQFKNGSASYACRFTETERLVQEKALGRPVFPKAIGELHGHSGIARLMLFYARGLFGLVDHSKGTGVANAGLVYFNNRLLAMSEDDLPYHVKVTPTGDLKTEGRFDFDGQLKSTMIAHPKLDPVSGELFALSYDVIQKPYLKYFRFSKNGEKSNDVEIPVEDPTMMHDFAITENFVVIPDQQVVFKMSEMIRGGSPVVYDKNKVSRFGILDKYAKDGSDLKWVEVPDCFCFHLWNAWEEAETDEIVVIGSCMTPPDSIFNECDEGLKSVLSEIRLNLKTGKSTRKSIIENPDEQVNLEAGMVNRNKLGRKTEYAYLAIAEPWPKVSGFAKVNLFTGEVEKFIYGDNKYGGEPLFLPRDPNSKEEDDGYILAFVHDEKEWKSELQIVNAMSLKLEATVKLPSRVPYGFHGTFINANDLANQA", "experiment": "In vitro NCED enzyme assay (recombinant LeNCED1 cell-free extract, HPLC, 9′-cis-neoxanthin substrate)", "assay_type": "biochemical, tomato", "method": "In vitro NCED enzyme assay—We over-expressed LeNCED1 in E. coli, as an N-terminal His6-fusion protein (supplemental methods). Cell-free extract containing recombinant LeNCED1 was prepared in 100 mM bis-tris buffer (pH 6.7). 15 μl extract was pre-activated by addition of iron(II) sulphate (20 mM, 1 μl) and ascorbic acid (20 mM, 1 μl) on ice for 2 min, prior to use. This aliquot of enzyme was then added to an assay (150 μl total volume) containing 100 mM bis-tris buffer (pH 6.7), 0.05% v/v Triton X-100, 1.0 mg/ml catalase, and 3 μg 9′-cis-neoxanthin. The 9′-cis-neoxanthin substrate was prepared as described in supplemental methods. The enzyme assay was incubated for 15 min in the dark at 20° C. Water (700 μl) was then added, and the products extracted with ethyl acetate (3×1 ml). The organic solvent was removed at reduced pressure, the residue was dissolved in methanol (200 μl), and then 100 μl was injected onto a Phenomenex C18 reverse phase HPLC column, and a gradient of 5-10% methanol in acetonitrile/0.05% triethylamine was applied at 0.5 ml/min over 20 min, detecting at 440 nm. NCED inhibition assays contained 1-100 μM inhibitor; inhibition was calculated from the product formation after 15 min, compared to a control assay with no inhibitor present.\n(§1) For the production of cell-free extracts of LeCCD1a and LeNCED1, cultures were grown to an OD of 0.6 at 37° C., then isopropyl β-D-1-thiogalactopyranoside (IPTG) was added to 0.2 mM and the cultures grown overnight at 20° C. The cells (200 ml cultures) were harvested by centrifugation (5000 rpm, 10 min) and the pellet re-suspended in 4 ml PBS, 0.1% Triton-X 100. Lysozyme was added to a final concentration of 25 μg ml^−1 and the solution incubated at room temperature for 15 min before sonication (3×30 s at 18Ω) on ice. The lysate was then centrifuged (13000 rpm, 15 min, 4° C.) and the supernatant used for the assay.\n(§2) Specificity of inhibition in vitro for tomato genes LeNCED1 and LeCCD1a—In order to screen the inhibitors against enzymes which cleave carotenoids at the 9,10 position, we used the recombinant tomato LeCCD1a protein (44), because this type of enzyme can be studied using an in vitro colourimetric assay with β-apo-8′-carotenal as substrate (37). To establish the specificity of the inhibitors, they were also tested against the tomato LeNCED1 recombinant protein which cleaves 9-cis carotenoids at the 11,12 position (45). For this enzyme, the cleavage reaction was monitored by C18 reverse phase HPLC, using 9′-cis-neoxanthin as substrate."}, "LeCCD1a": {"molecular_target": "LeCCD1a (Solanum lycopersicum, UniProt Q6E4P5)", "sequence (Q6E4P5 1-545)": "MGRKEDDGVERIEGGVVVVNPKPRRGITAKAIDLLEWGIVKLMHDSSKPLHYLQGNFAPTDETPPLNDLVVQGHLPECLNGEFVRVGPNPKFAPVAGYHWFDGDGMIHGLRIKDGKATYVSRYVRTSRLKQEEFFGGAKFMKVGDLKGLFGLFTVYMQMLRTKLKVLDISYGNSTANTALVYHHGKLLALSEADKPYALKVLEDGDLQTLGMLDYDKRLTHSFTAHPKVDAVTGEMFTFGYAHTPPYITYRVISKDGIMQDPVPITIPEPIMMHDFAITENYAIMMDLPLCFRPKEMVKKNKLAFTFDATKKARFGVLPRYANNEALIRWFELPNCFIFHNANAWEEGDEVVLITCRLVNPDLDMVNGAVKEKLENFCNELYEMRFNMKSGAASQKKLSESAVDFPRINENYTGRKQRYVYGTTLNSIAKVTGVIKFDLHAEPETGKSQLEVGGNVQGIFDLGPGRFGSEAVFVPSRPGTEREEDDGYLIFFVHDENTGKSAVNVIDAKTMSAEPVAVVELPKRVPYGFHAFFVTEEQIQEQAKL", "experiment": "In vitro LeCCD1a enzyme assay (recombinant cell-free extract, colourimetric, apo-8′-carotenal substrate)", "assay_type": "biochemical, tomato (Solanum lycopersicum)", "conditions": "for inhibition at 100 µM: read-out: LeCCD1a (9,10/9′,10′) Inhibition @ 100 μM (%)", "method": "In vitro LeCCD1a enzyme assay—We over-expressed LeCCD1a in E. coli, as a GST-fusion protein (supplemental methods). The in vitro assay of LeCCD1a was based on reported methods (37), and was carried out in a 200 μl total volume in a 96-well microtitre plate, with the signal detected at 485 nm. To prepare substrate solution for each assay, 5 μl of 4% (w/v in ethanol) apo-8′-carotenal (Sigma) was mixed with 25 μl of 4% (w/v in ethanol) β-octylglucoside (Sigma), the ethanol was then evaporated under nitrogen, and the residue dissolved in 150 μl PBS buffer containing 10 mM sodium ascorbate by incubation at 20° C. for 30 min. 50 μl of cell-free extract containing recombinant LeCCD1a was added, and the reactions monitored over 30 min at 20° C.\nas §1, §2"}, "[1]": {"conditions": "100 μM inhibitor, E. coli cell extract with recombinant CCD"}},
  "note": "“Also recorded” adds a separate entry of the source.",
  "data": [
    {"molecule": "COc1ccc(C(=O)N(O)Cc2ccccc2)cc1", "note": "[Compound F1, N-benzyl-4-methoxybenzoyl hydroxamic acid]", "values": [
      {"measurement": "inhibition of LeNCED1 in vitro (in words)", "setting": "LeNCED1", "result": "little or no inhibition of LeNCED1; also recorded: no inhibition of LeNCED 1 was detected"},
      {"measurement": "inhibition of LeCCD1 in vitro (in words)", "setting": "LeCCD1a", "result": "high levels of inhibition of LeCCD1"},
      {"measurement": "inhibition at 100 µM", "setting": "LeCCD1a", "result": "> 95", "unit": "%"}
    ]},
    {"molecule": "COc1ccc(C(=O)N(O)Cc2ccc(F)cc2)cc1", "note": "[Compound F2, N-(4-fluorobenzyl)-4-methoxybenzoyl hydroxamic acid]", "values": [
      {"measurement": "inhibition of LeNCED1 in vitro (in words)", "setting": "LeNCED1", "result": "little or no inhibition of LeNCED1"},
      {"measurement": "inhibition of LeCCD1 in vitro (in words)", "setting": "LeCCD1a", "result": "high levels of inhibition of LeCCD1"},
      {"measurement": "inhibition at 100 µM", "setting": "LeCCD1a", "result": "> 95", "unit": "%"}
    ]},
    {"molecule": "COc1ccc(C(=O)N(O)Cc2ccccc2)cc1OC", "note": "[Compound F3, N-benzyl-3,4-dimethoxybenzoyl hydroxamic acid]", "values": [
      {"measurement": "LeNCED1 (11,12) Inhibition @ 100 μM (%)", "setting": "LeNCED1; [1]", "result": 2, "unit": "%"},
      {"measurement": "LeCCD1a (9,10/9′,10′) Inhibition @ 100 μM (%)", "setting": "LeCCD1a; [1]", "result": 50, "unit": "%"}
    ]}
  ]
}
